Experimental data reported in PMC11855827, “High-Throughput Screening of Five Compound Libraries for Anthelmintic Activity and Toxicity Leads to the Discovery of Two Flavonoid Compounds” (International Journal of Molecular Sciences, 2025).
Where two headings read alike, the source gives them in different places.

Test system: C. elegans
Test: microbe, parasite or virus in culture
Conditions: Caenorhabditis elegans
[1] = 0 h, read-out: Percentage of motility inhibition 0 h, Table S2, C. elegans SS assay, 110 μM, 0 h, averages of 4 data points
[2] = 24 h, read-out: Percentage of motility inhibition 24 h, Table S2, C. elegans SS assay, 110 μM, 24 h, averages of 4 data points
[3] = 0 h, read-out: Percentage of motility inhibition 0 h
[4] = 24 h, read-out: Percentage of motility inhibition 24 h

SMILES | inhibition at 110 µM [1] [%] | inhibition at 110 µM [2] [%] | inhibition at 110 µM [3] [%] | inhibition at 110 µM [4] [%]
CC(C)OC(=O)[C@H](C)N[P@](=O)(OC[C@H]1O[C@@H](n2ccc(=O)[nH]c2=O)[C@](C)(F)[C@@H]1O)Oc1ccccc1 [PSI‐7977] | 6 | 11 | – | –
COc1ccc([C@@H](O)CNC(=O)/C=C/c2ccccc2)cc1 (racemic) [Aegeline] | 4 | 6 | – | –
COc1ccc(C(=O)O[C@H]2CC[C@@]3(C)[C@@H]4CC[C@H]5[C@]6(O)C[C@H](O)[C@@]7(O)[C@@H](CN8C[C@@H](C)CC[C@H]8[C@@]7(C)O)[C@]6(O)C[C@@]53O[C@]24O)cc1OC [Veratridine] | 4 | 0 | – | –
C=C(C)[C@H](C)c1cc(/C=C/C(=O)c2ccc(O)cc2)c(OC)cc1O [Licochal cone E] | 5 | 0 | – | –
COC(=O)C1=CO[C@@H](O[C@@H]2O[C@H](CO)[C@@H](O)[C@H](O)[C@H]2O)[C@@H]2[C@H](C)O[C@@H](O)C[C@H]12 [Morroniside] | 5 | 42 | – | –
COc1cc(C(=O)OCCCCNC(=N)N)cc(OC)c1O [Leonurine] | 0 | 0 | – | –
CCCCC/C=C/C(=O)CCc1ccc(O)c(OC)c1 [Shogaol] | 0 | 5 | – | –
CSCCC(N)C(=O)O (racemic) [DL-Methionine] | 6 | 2 | – | –
COC[C@H]1C[C@@H](c2nc(-c3ccc4c(c3)COc3cc5c(ccc6nc([C@@H]7CC[C@H](C)N7C(=O)[C@@H](NC(=O)OC)C(C)C)[nH]c65)cc3-4)c[nH]2)N(C(=O)[C@H](NC(=O)OC)c2ccccc2)C1 [Velpatasvir] | 19 | 1 | – | –
CC(C)(O)/C=C/C(=O)[C@](C)(O)[C@H]1[C@H](O)C[C@@]2(C)[C@@H]3CC=C4[C@@H](C=C(O)C(=O)C4(C)C)[C@]3(C)C(=O)C[C@]12C [Cucurbitacin I] | 0 | 23 | – | –
C[C@H](CC(=O)C[C@@H](C)[C@H]1C[C@H](O)[C@@]2(C)C3=C(C(=O)C[C@]12C)[C@@]1(C)CCC(=O)C(C)(C)[C@@H]1C[C@@H]3O)C(=O)O [Ganoderic acid A] | 15 | 6 | – | –
CC(C)=CCc1cc([C@@H]2CC(=O)c3ccc(O)c(CC=C(C)C)c3O2)ccc1O [Glabrol] | 11 | 9 | – | –
CC1=C[C@H](O)CC(C)(C)[C@H]1/C=C/C(C)=C/C=C/C(C)=C/C=C/C=C(C)/C=C/C=C(C)/C=C/C1=C(C)C[C@@H](O)CC1(C)C [Lutein] | – | – | 13 | 0
C=C1CC[C@@H]2[C@](C)(CO[C@@H]3O[C@H](CO)[C@@H](O)[C@H](O)[C@H]3O)CCC[C@@]2(C)[C@@H]1CCC1=CCOC1=O [Neoandrographolide] | 15 | 40 | – | –
O=c1c(O)c(-c2cc(O)c(O)c(O)c2)oc2cc(O)cc(O)c12 [Myricetin] | – | – | 30 | 7
CC1=C(O)C(=O)C=C2C1=CC=C1[C@@]2(C)CC[C@@]2(C)[C@@H]3C[C@](C)(C(=O)O)CC[C@]3(C)CC[C@]12C [Celastrol] | 0 | 13 | – | –
CC1=CC(=O)[C@@H]2C[C@H]1C2(C)C [Verbenone] | 4 | 4 | – | –
CC(C)=CCC[C@](C)(O)[C@H]1CC[C@]2(C)[C@@H]1[C@H](O)C[C@@H]1[C@@]3(C)CC[C@H](O[C@@H]4O[C@H](CO)[C@@H](O)[C@H](O)[C@H]4O)C(C)(C)[C@@H]3CC[C@]12C [Ginsenoside Rh2] | 34 | 38 | – | –
C=C[C@@]12CN(C)[C@H]3C[C@]14C(=Nc1ccccc14)[C@H]1C[C@@H]2[C@@H]3CO1 [Koumine] | 16 | 18 | – | –

SMILES | inhibition at 110 µM [1] [%] | inhibition at 110 µM [2] [%] | inhibition at 110 µM [3] [%] | inhibition at 110 µM [4] [%]
O=C1c2c(O)cc(O)cc2O[C@H](c2ccc(O)cc2)[C@H]1O [Dihydrokaempferol] | 2 | 0 | – | –
O=C(Nc1ccc(O)cc1)c1ccccc1O [Osalmid] | 48 | 1 | – | –
COC(=O)Nc1nc2ccc(C(=O)c3ccccc3)cc2[nH]1 [Mebendazole] | 18 | 37 | – | –
O=C(/C=C/c1ccccc1)c1ccc(O)cc1 [4'‐Hydroxychalcone] | 39 | 15 | – | –
CC(=O)OCC1=C[C@@H]2OC(=O)C3=CO[C@@H](O[C@@H]4O[C@H](CO)[C@@H](O)[C@H](O)[C@H]4O)[C@H]1[C@@H]32 [Asperuloside] | 0 | 5 | – | –
C[C@H](CCC(=O)O)[C@H]1CC[C@H]2[C@@H]3CC[C@@H]4C[C@H](O)CC[C@]4(C)[C@H]3C[C@H](O)[C@]12C [Deoxycholic acid] | 29 | 12 | – | –
OCC1=C[C@@H](O)[C@@H]2C=CO[C@@H](O[C@@H]3O[C@H](CO)[C@@H](O)[C@H](O)[C@H]3O)[C@H]12 [Aucubin] | 10 | 19 | – | –
C=C1C[C@@]23CC[C@H]4[C@@](C)(CCC[C@@]4(C)C(=O)O)[C@@H]2CC[C@]1(O)C3 [Steviol] | 13 | 34 | – | –
Oc1c(Cl)cc(Cl)cc1Sc1cc(Cl)cc(Cl)c1O [Bithionol] | 40 | 40 | – | –
C/C=C(/C)C(=O)O[C@H]1[C@H](OC(C)=O)[C@]2(CO)[C@H](O)C[C@]3(C)C(=CC[C@@H]4[C@@]5(C)CC[C@H](O[C@@H]6O[C@H](C(=O)O)[C@@H](O[C@@H]7O[C@H](CO)[C@@H](O)[C@H](O)[C@H]7O)[C@H](O)[C@H]6O[C@@H]6O[C@H](CO)[C@@H](O)[C@H](O)[C@H]6O)[C@](C)(CO)[C@@H]5CC[C@]43C)[C@@H]2CC1(C)C [Escin IB] | 0 | 0 | – | –
O=C(OCc1ccccc1)c1ccccc1 [Benzyl benzoate] | 35 | 36 | – | –
CC1(C)CCC[C@](C)([C@H]2CC[C@]3(C)[C@@H]2[C@H](O)C[C@@H]2[C@@]4(C)CC[C@H](O)C(C)(C)[C@@H]4CC[C@]23C)O1 [Panaxadiol] | 39 | 36 | – | –
C[C@@H]1[C@H]2c3cc4c(cc3O[C@@]35OCOC3=CC(=O)[C@H](C[C@H]1C)[C@@H]25)OCO4 [Sauchinone] | 18 | 25 | – | –
CN1[C@@H]2CC[C@H]1C[C@@H](OC(=O)[C@H](CO)c1ccccc1)C2 [L‐Hyoscyamine] | – | – | 16 | 12
C=C1[C@H]2C[C@@]3([C@@H]1O)[C@@H](CC2=O)[C@]12[C@@H]4C[C@H]3[C@H]1N(CC)C[C@]4(C)CC[C@@H]2O [Songorine] | – | – | 5 | 9
COc1ccc(-c2cc(=O)c3c(O)cc(O)cc3o2)cc1 [Acacetin] | 9 | 2 | – | –
O=C(/C=C/c1ccc(O)cc1)c1ccccc1 [4‐Hydroxychalcone] | 0 | 1 | – | –
COc1cc(C(=O)O[C@H]2[C@@H]3C=CO[C@@H](O[C@@H]4O[C@H](CO)[C@@H](O)[C@H](O)[C@H]4O)[C@@H]3[C@@]3(CO)O[C@@H]23)ccc1O [Picroside II] | 0 | 13 | – | –
